Columns and labels:
LPS injured mice = test: Lung injury score (LIS) and H&E sections, LPS-injured mice, q6h x 4 doses; format: in vivo
human neutrophils = test: Human neutrophil migration in modified Boyden chamber (FMLP chemoattractant); format: cell-based; settings: for neutrophil migration into the basal chamber: 1 hour
Experimental: To determine if this effect was relevant in humans we utilized a modified Boyden chamber to assess the effect of Compound 1 on migration of human neutrophils. […] The basal chamber was filled with media containing the chemoattractant N-Formylmethionyl-leucyl-phenylalanine (FMLP) or vehicle. The apical chamber was seeded with ˜100,000 neutrophils with the addition of Compound 1 or vehicle. In the basal chamber, the neutrophils were allowed to migrate for 1 hour after which the basal chamber was fixed, stained with DAPI, and photographed. Five fields per well were imaged and the number of neutrophils counted using NIH ImageJ.

integrin β1 = test: Integrin β1 immunofluorescent staining of human neutrophils; format: cell-based; settings: Compound 1 treatment for 1 hour, n=3, p<0.05
Description: Regulation of cell motility by the integrin β1 subunit is well-documented in multiple cell types, with several lines of evidence indicating MMPs play a significant role in expression and cellular localization of integrin β1 during neutrophil migration (Dumin J A, et al. Pro-collagenase-1 (matrix metalloproteinase-1) binds the alpha(2)beta(1) integrin upon release from keratinocytes migrating on type I collagen. J Biol Chem 2001; 276(31); Ugarte-Berzal E, et al. A 17-residue sequence from the matrix metalloproteinase-9 (MMP-9) hemopexin domain binds alpha4beta1 integrin and inhibits MMP-9-induced functions in chronic lymphocytic leukemia B cells. J Biol Chem 2012; 287(33)). To determine if MMP inhibition by Compound 1 interfered with integrin β1 expression in human neutrophils, cells were seeded onto glass chamber slides followed by Compound 1 treatment for 1 hour. Cells were fixed and immunofluorescent staining was performed for integrin β1 and staining intensity was measured using NIH ImageJ and standardized to the number of cells per field.

## butanamide, N-hydroxy-2-[[(4-hydroxyphenyl)sulfonyl](3-pyridinylmethyl)amino]-3-methyl, hydrochloride, (2R) [Compound 1]
LPS injured mice; LPS 1.5 mg/kg, four doses (12 mg/kg) via nebulizer every 6 hours from 24 hours after LPS, n=5 (LPS only 0.524±0.054, PBS only 0.188±0.025)
  Lung Injury Score (LIS): 0.277±0.031 LIS
LPS injured mice; LPS then four nebulized doses every 6 hours, vs mice only receiving LPS
  inflammation in H&E stained lung sections (qualitative): reduced inflammation
Human neutrophils; 10 nm CGS, no FMLP, n=4
  neutrophil migration into the basal chamber: 233±61 cells
Human neutrophils; 20 nm CGS, no FMLP, n=4
  neutrophil migration into the basal chamber: 293±148 cells
Human neutrophils; FMLP + 10 nm Compound 1
  inhibition of FMLP-induced neutrophil migration: did not achieve significance
Human neutrophils; FMLP+20 nm CGS, n=4 (FMLP alone 4280±480)
  neutrophil migration into the basal chamber: 2819±362 cells
Integrin β1
  integrin β1 fluorescence intensity per cell: 2.88±1.23 RFU
